Converted amounts (≈) assume the structure as drawn. “Also recorded” adds a separate entry of the source.
Assays:
fresh human erythrocytes = experiment: Hemolysis assay; type: cell-based; settings: 2 hours, all concentrations tested (even higher than 100 μg/mL)
Experimental: FIG. 14A illustrates a cytotoxic activity assay of the red and blue 1,4 benzoquinones. Hemolysis was evaluated using fresh human erythrocytes. Lysis was evaluated by the absorbance of the supernatant at 415 nm after 2 hours of incubation with different concentrations of the 1,4 benzoquinones. Triton X-100 was used as positive control.
Hemolysis assay: The hemolytic activity was evaluated for both of the 1,4 benzoquinones using fresh human erythrocytes. Fresh human erythrocytes were washed four times with phosphate buffered saline (PBS) and incubated for 2 h at 37° C. with different concentration of the 1,4 benzoquinones. A gradient of Triton X-100 was used as positive control of hemolysis. After incubation, the erythrocytes suspension was centrifuged at 400×g for 10 min and supernatant was recovered. Hemolysis was determined by the absorbance of the supernatant at 415 nm.

Staphylococcus aureus [1] = experiment: disk-diffusion assay; type: cell-based
Experimental: Ampicillin (5 μg) was used as a positive control.
This difference was confirmed using a broth microdilution assay (FIG. 3D). The minimum inhibitory concentration (MIC) for S. aureus growth was 4 μg/mL for the red 1,4 benzoquinone and 6 μg/mL for the blue 1,4 benzoquinone (FIG. 3D, Table 1). Ampicillin (MIC=0.5 μg/mL) was used as a positive control (ESCMID Eo (2003) Clin. Microbiol. Infect. 9: ix-xv; Pieterse et al., (2010) Brazil. J. Microbiol. 41: 133-145). These compounds were bactericidal at their MICs, killing 90% of S. aureus in 6 h and 99.9% in 24 h (Table 2).

[2] = system: Mycobacterium tuberculosis H37Rv; experiment: microbe, parasite or virus in culture; type: cell-based; settings: M. tuberculosis H37Rv, broth microdilution
E. coli = experiment: activity against gram negative E. coli; type: cell-based
[3] = system: Staphylococcus aureus ATCC 29213; experiment: Minimum inhibitory concentration, Table 1, strain ATCC 29213; type: cell-based; settings: for sensitive/resistant (growth): ATCC 29213; for sensitive/resistant (growth): key: S Sensitive (did not grow the crop); R resistant (bacterial growth)
Staphylococcus aureus [4] = experiment: Time-kill assay; type: cell-based; settings: for killing of S. aureus: at their MICs
[5] = system: clinical isolates of methicillin-resistant S. aureus (MRSA); experiment: Minimum inhibitory concentration, Table 1, MRSA clinical isolates; type: cell-based, Staphylococcus aureus; for sensitive/resistant (growth): key: S Sensitive (did not grow the crop); R resistant (bacterial growth)
TE671 muscle cells = experiment: detection of intracellular reactive oxygen species with DCFH-DA; type: cell-based; settings: 25 μM, 6 hours
Experimental: FIG. 16A illustrates the detection of intracellular reactive oxygen species (ROS) using the oxidant-sensing probe dichloro-dihydro-fluorescein diacetate (DCFH-DA). TE671 muscle cells were used. Cells were cultured according to the ATCC guidelines. Before treatment, cells were incubated for one hour with a 10 μM solution of DCFH-DA. After the cells were washed 3×PBS, either the red or blue 1,4 benzoquinone was administered at a concentration of 25 μM. Cells were then incubated at 37° C. in 5% CO2 for 6 hours. Following the incubation period, cells were harvested and evaluated with a Zeiss Axioskop fluorescence microscope using a 485-nm excitation and 530-nm emission filter combination. […] Treatment with hydrogen peroxide (50 μM) was used as positive control.

Candida. albicans = experiment: activity against pathogenic fungus; type: cell-based

SMILES: COC1=CC(=O)C(SC)=C(OC)C1=O [red 1,4 benzoquinone, 3,5-dimethoxy-2-(methylthio)cyclohexa-2,5-diene-1,4-dione]
- hemolytic activity (fresh human erythrocytes): no erythrocyte hemolysis was observed; also recorded: Neither 1,4 benzoquinone showed hemolytic activity
- inhibition of S. aureus growth (Staphylococcus aureus [1]): clear inhibition; also recorded: inhibitory activity
- MIC [2]: > 160 µg/mL
- activity against gram negative E. coli (E. coli): neither compound was found to have appreciable activity; also recorded: Neither 1,4 benzoquinone showed activity
- sensitive/resistant (growth) ([3]; 0.5 μg/ml): R
- sensitive/resistant (growth) ([3]; 1 μg/ml): S
- sensitive/resistant (growth) ([3]; 2 μg/ml): S
- sensitive/resistant (growth) ([3]; 4 μg/ml): S
- sensitive/resistant (growth) ([3]; 8 μg/ml): S
- sensitive/resistant (growth) ([3]; 16 μg/ml): S
- sensitive/resistant (growth) ([3]; 32 μg/ml): S
- sensitive/resistant (growth) ([3]; 64 μg/ml): S
- MIC ([3]; ATCC29213, Staphylococcus aureus ATCC 29213): 1 µg/mL (≈ 4.67 µM)
- Colony-forming Units (CFU) (Staphylococcus aureus [4]; 0 hr incubation, 2 × MIC): 311 Colony-forming units per plate
- Colony-forming Units (CFU) (Staphylococcus aureus [4]; 0 hr incubation, MIC): 298 Colony-forming units per plate
- Colony-forming Units (CFU) (Staphylococcus aureus [4]; 6 hr incubation, 2 × MIC): 9 Colony-forming units per plate
- Colony-forming Units (CFU) (Staphylococcus aureus [4]; 6 hr incubation, MIC): 22 Colony-forming units per plate
- Colony-forming Units (CFU) (Staphylococcus aureus [4]; 12 hr incubation, 2 × MIC): 0 Colony-forming units per plate
- Colony-forming Units (CFU) (Staphylococcus aureus [4]; 12 hr incubation, MIC): 3 Colony-forming units per plate
- Colony-forming Units (CFU) (Staphylococcus aureus [4]; 24 hr incubation, 2 × MIC): 0 Colony-forming units per plate
- Colony-forming Units (CFU) (Staphylococcus aureus [4]; 24 hr incubation, MIC): 0 Colony-forming units per plate
- killing of S. aureus (Staphylococcus aureus [4]; in 6 h): 90%
- killing of S. aureus (Staphylococcus aureus [4]; in 24 h): 99.9%
- MIC ([5]; Staphylococcus aureus, MRSA): > 64 µg/mL
- MIC ([5]; strain 01 2075): >64 µg/mL
- sensitive/resistant (growth) ([5]; strain 01 2075, 0.5 μg/ml): R
- sensitive/resistant (growth) ([5]; strain 01 2075, 1 μg/ml): R
- sensitive/resistant (growth) ([5]; strain 01 2075, 2 μg/ml): R
- sensitive/resistant (growth) ([5]; strain 01 2075, 4 μg/ml): R
- sensitive/resistant (growth) ([5]; strain 01 2075, 8 μg/ml): R
- sensitive/resistant (growth) ([5]; strain 01 2075, 16 μg/ml): R
- sensitive/resistant (growth) ([5]; strain 01 2075, 32 μg/ml): R
- sensitive/resistant (growth) ([5]; strain 01 2075, 64 μg/ml): R
- MIC ([5]; strain 01 2104): >64 µg/mL
- sensitive/resistant (growth) ([5]; strain 01 2104, 0.5 μg/ml): R
- sensitive/resistant (growth) ([5]; strain 01 2104, 1 μg/ml): R
- sensitive/resistant (growth) ([5]; strain 01 2104, 2 μg/ml): R
- sensitive/resistant (growth) ([5]; strain 01 2104, 4 μg/ml): R
- sensitive/resistant (growth) ([5]; strain 01 2104, 8 μg/ml): R
- sensitive/resistant (growth) ([5]; strain 01 2104, 16 μg/ml): R
- sensitive/resistant (growth) ([5]; strain 01 2104, 32 μg/ml): R
- sensitive/resistant (growth) ([5]; strain 01 2104, 64 μg/ml): R
- sensitive/resistant (growth) ([5]; strain 09 3001, 0.5 μg/ml): R
- sensitive/resistant (growth) ([5]; strain 09 3001, 1 μg/ml): R
- sensitive/resistant (growth) ([5]; strain 09 3001, 2 μg/ml): R
- sensitive/resistant (growth) ([5]; strain 09 3001, 4 μg/ml): R
- sensitive/resistant (growth) ([5]; strain 09 3001, 8 μg/ml): R
- sensitive/resistant (growth) ([5]; strain 09 3001, 16 μg/ml): R
- sensitive/resistant (growth) ([5]; strain 09 3001, 32 μg/ml): R
- sensitive/resistant (growth) ([5]; strain 09 3001, 64 μg/ml): R
- MIC ([5]; strain 21 2001): >64 µg/mL
- sensitive/resistant (growth) ([5]; strain 21 2001, 0.5 μg/ml): R
- sensitive/resistant (growth) ([5]; strain 21 2001, 1 μg/ml): R
- sensitive/resistant (growth) ([5]; strain 21 2001, 2 μg/ml): R
- sensitive/resistant (growth) ([5]; strain 21 2001, 4 μg/ml): R
- sensitive/resistant (growth) ([5]; strain 21 2001, 8 μg/ml): R
- sensitive/resistant (growth) ([5]; strain 21 2001, 16 μg/ml): R
- sensitive/resistant (growth) ([5]; strain 21 2001, 32 μg/ml): R
- sensitive/resistant (growth) ([5]; strain 21 2001, 64 μg/ml): R
- intracellular reactive oxygen species (oxidation of DCFH-DA) (TE671 muscle cells): Intracellular oxidation of the DCFH-DA in cells treated with the 1,4 benzoquinones was observed
- activity against the pathogenic fungus Candida. albicans (Candida. albicans): Neither 1,4 benzoquinone showed activity

Source: patent US20210214303A1, “SCORPION VENOM BENZOQUINONE DERIVATIVES AND USES THEREOF” (priority 2018, published 2021)
